According to US4129737A, “Process for the preparation of an 8-alkyl-5-oxo-5,8-dihydro-pyrido(2,3-d)pyrimidine-6-carboxylic acid” (priority 1972, dated 1978):
In brackets after ≈: the same amount, converted by molar mass. Read-outs that look alike come from different tables or passages of the source.

Tests used:
Assay type in all cases: cell-based
[1] = system: Staphylococcus 209 P; assay: Minimum inhibitory concentration by agar dilution, Staphylococcus 209 P
Description: (§1) (a) Trypticase soya medium (T.S.A.), which is very suitable for culturing the majority of microorganisms; it has the following composition:
(§2) (b) Ordinarily nutrient agar (N.A.), which is less rich in nutrients, corresponds to the following formulation: […]
(§3) Table I gives the minimum inhibitory concentrations (expressed in μg/cm^3) for the various microorganisms tested on each medium.
(§4) The products were tested on three Gram positive microorganisms (1 to 3) […] and on 10 Gram negative microorganisms (4 to 13).
(§5) Table (II) gives the minimum inhibitory concentrations of the compounds of Examples XII to XVI, determined on the agar medium, N.A., and expressed in μg/cm^3.

[2] = system: Streptococcus; assay: Minimum inhibitory concentration by agar dilution, Streptococcus Group A
Description: as §1, §2, §3, §4, §5

[3] = system: B. subtilis; assay: Minimum inhibitory concentration by agar dilution, B. subtilis; conditions: Bacillus subtilis
Description: as §1, §2, §3, §4, §5

[4] = system: Bord. bronchiseptica; assay: Minimum inhibitory concentration by agar dilution, Bord. bronchiseptica; conditions: Bordetella bronchiseptica
Description: as §1, §2, §3, §4, §5

[5] = system: B. pyocyaneus A22; assay: Minimum inhibitory concentration by agar dilution, B. pyocyaneus A22; conditions: Pseudomonas aeruginosa
Description: as §1, §2, §3, §4, §5

[6] = system: Esch. Coli 95; assay: Minimum inhibitory concentration by agar dilution, Esch. Coli 95; conditions: Escherichia coli
Description: as §1, §2, §3, §4, §5

[7] = system: Klebs. pneumoniae; assay: Minimum inhibitory concentration by agar dilution, Klebs. pneumoniae; conditions: Klebsiella pneumoniae
Description: as §1, §2, §3, §4, §5

[8] = system: Salm. typhi; assay: Minimum inhibitory concentration by agar dilution, Salm. typhi; conditions: Salmonella enterica, 18 h
Description: as §1, §2, §3, §4, §5

[9] = system: Sh. sonnei; assay: Minimum inhibitory concentration by agar dilution, Sh. sonnei; conditions: Shigella sonnei
Description: as §1, §2, §3, §4, §5

[10] = system: Pr. vulgaris; assay: Minimum inhibitory concentration by agar dilution, Pr. vulgaris; conditions: Proteus vulgaris
Description: as §1, §2, §3, §4, §5

[11] = system: Pr. mirabilis; assay: Minimum inhibitory concentration by agar dilution, Pr. mirabilis; conditions: Proteus mirabilis
Description: as §1, §2, §3, §4, §5

[12] = system: Pr. morganii; assay: Minimum inhibitory concentration by agar dilution, Pr. morganii; conditions: Morganella morganii
Description: as §1, §2, §3, §4, §5

[13] = system: B. pyocyaneus TUR; assay: Minimum inhibitory concentration by agar dilution, B. pyocyaneus TUR; conditions: Pseudomonas aeruginosa, 37° C., 18 hours
Description: as §1, §2, §3, §4

[14] = 18 h, agar medium, N.A., Table II (Staphylococcus 20 P [sic]), read-out: minimum inhibitory concentration
[15] = 18 h, agar medium, N.A., Table II, read-out: minimum inhibitory concentration
[16] = A22, 18 h, agar medium, N.A., Table II, read-out: minimum inhibitory concentration
[17] = read-out: minimum inhibitory concentration
[18] = 18 h, read-out: minimum inhibitory concentration
[19] = N.A. (nutrient agar, pH 6.8), 37° C., 18 hours, Table I, read-out: minimum inhibitory concentration (M.I.C.)
[20] = T.S.A. (trypticase soya medium, pH 7.3), 37° C., 18 hours, read-out: minimum inhibitory concentration (M.I.C.)
[21] = 18 h, pH 6.8, read-out: minimum inhibitory concentration (M.I.C.)

CCN1CCN(c2ncc3c(=O)c(C(=O)O)cn(CC)c3n2)CC1 [Example XII, 2-(4'-Ethyl-piperazino)-5-oxo-8-ethyl-5,8-dihydro-pyrido(2,3-d)pyrimidine-6-carboxylic acid]
MIC [1, 14]: 1.6 µg/mL (≈ 4.83 µM)
MIC [2, 15]: 3.1 µg/mL (≈ 9.35 µM)
MIC [3, 15]: 100 µg/mL (≈ 302 µM)
MIC [4, 15]: 100 µg/mL (≈ 302 µM)
MIC [5, 16]: 100 µg/mL (≈ 302 µM)
MIC [6, 15]: 0.8 µg/mL (≈ 2.41 µM)
MIC [7, 15]: 0.4 µg/mL (≈ 1.21 µM)
MIC [8, 17]: 0.8 µg/mL (≈ 2.41 µM)
MIC [9, 15]: 0.8 µg/mL (≈ 2.41 µM)
MIC [10, 15]: 0.8 µg/mL (≈ 2.41 µM)
MIC [11, 15]: 6.2 µg/mL (≈ 18.7 µM)
MIC [12, 15]: 0.8 µg/mL (≈ 2.41 µM)

CCn1cc(C(=O)O)c(=O)c2cnc(N3CCN(Cc4ccc(OC)cc4)CC3)nc21 [XVI, 2-(4'-p-Methoxybenzyl-piperazino)-5-oxo-8-ethyl-5,8-dihydro-pyrido(2,3-d)pyrimidine-6-carboxylic acid]
MIC [1, 14]: 0.4 µg/mL (≈ 0.945 µM)
MIC [2, 15]: 0.8 µg/mL (≈ 1.89 µM)
MIC [3, 15]: 50 µg/mL (≈ 118 µM)
MIC [4, 15]: 12.5 µg/mL (≈ 29.5 µM)
MIC [5, 16]: 12.5 µg/mL (≈ 29.5 µM)
MIC [6, 15]: 3.1 µg/mL (≈ 7.32 µM)
MIC [7, 15]: 0.2 µg/mL (≈ 0.472 µM)
MIC [8, 17]: 1.6 µg/mL (≈ 3.78 µM)
MIC [9, 15]: 0.8 µg/mL (≈ 1.89 µM)
MIC [10, 15]: 6.2 µg/mL (≈ 14.6 µM)
MIC [11, 15]: 12.5 µg/mL (≈ 29.5 µM)
MIC [12, 15]: 1.6 µg/mL (≈ 3.78 µM)

CCCN1CCN(c2ncc3c(=O)c(C(=O)O)cn(CC)c3n2)CC1 [XIII, 2-(4'-Propyl-piperazino)-5-oxo-8-ethyl-5,8-dihydro-pyrido(2,3-d)pyrimidine-6-carboxylic acid]
MIC [1, 14]: 6.2 µg/mL (≈ 18 µM)
MIC [2, 15]: 6.2 µg/mL (≈ 18 µM)
MIC [3, 15]: 3.1 µg/mL (≈ 8.98 µM)
MIC [4, 18]: 12.5 µg/mL (≈ 36.2 µM)
MIC [5, 16]: 100 µg/mL (≈ 290 µM)
MIC [6, 15]: 50 µg/mL (≈ 145 µM)
MIC [7, 15]: 1.6 µg/mL (≈ 4.63 µM)
MIC [8, 17]: 12.5 µg/mL (≈ 36.2 µM)
MIC [9, 15]: 1.6 µg/mL (≈ 4.63 µM)
MIC [10, 15]: 6.2 µg/mL (≈ 18 µM)
MIC [11, 18]: 12.5 µg/mL (≈ 36.2 µM)
MIC [12, 15]: 6.2 µg/mL (≈ 18 µM)

Cn1cc(C(=O)O)c(=O)c2cnc(N3CCN(CCO)CC3)nc21 [Example XI, 2-(4'-β-Hydroxyethyl-piperazino)-5-oxo-8-methyl-5,8-dihydropyrido(2,3-d)pyrimidine-6-carboxylic acid]
MIC ([1]; Staphylococcus, N.A. (nutrient agar, pH 6.8), 37° C., 18 hours, Table I, read-out: minimum inhibitory concentration (M.I.C.)): 25 µg/mL (≈ 75 µM)
MIC ([1]; Staphylococcus, T.S.A. (trypticase soya medium, pH 7.3), 37° C., 18 hours, read-out: minimum inhibitory concentration (M.I.C.)): > 100 µg/mL
MIC [2, 19]: 25 µg/mL (≈ 75 µM)
MIC [2, 20]: > 100 µg/mL
MIC [3, 21]: 12.5 µg/mL (≈ 37.5 µM)
MIC [3, 20]: 100 µg/mL (≈ 300 µM)
MIC [4, 21]: 12.5 µg/mL (≈ 37.5 µM)
MIC [4, 20]: 100 µg/mL (≈ 300 µM)
MIC ([5]; A22, N.A. (nutrient agar, pH 6.8), 37° C., 18 hours, Table I, read-out: minimum inhibitory concentration (M.I.C.)): 100 µg/mL (≈ 300 µM)
MIC ([5]; A22, T.S.A. (trypticase soya medium, pH 7.3), 37° C., 18 hours, read-out: minimum inhibitory concentration (M.I.C.)): > 100 µg/mL
MIC ([13]; N.A. (nutrient agar, pH 6.8), Table I): 100 µg/mL (≈ 300 µM)
MIC ([13]; T.S.A. (trypticase soya medium, pH 7.3), read-out: minimum inhibitory concentration (M.I.C.)): > 100 µg/mL
MIC [6, 19]: 1.6 µg/mL (≈ 4.8 µM)
MIC [6, 20]: 25 µg/mL (≈ 75 µM)
MIC ([7]; 18 h, pH 7.3, read-out: minimum inhibitory concentration (M.I.C.)): 12.5 µg/mL (≈ 37.5 µM)
MIC [7, 19]: 3.1 µg/mL (≈ 9.3 µM)
MIC ([8]; pH 6.8, read-out: minimum inhibitory concentration (M.I.C.)): 6.2 µg/mL (≈ 18.6 µM)
MIC ([8]; pH 7.3, read-out: minimum inhibitory concentration (M.I.C.)): 50 µg/mL (≈ 150 µM)
MIC [9, 19]: 1.6 µg/mL (≈ 4.8 µM)
MIC [9, 20]: 12.5 µg/mL (≈ 37.5 µM)
MIC [10, 19]: 25 µg/mL (≈ 75 µM)
MIC [10, 20]: 50 µg/mL (≈ 150 µM)
MIC [11, 19]: 6.2 µg/mL (≈ 18.6 µM)
MIC [11, 20]: 25 µg/mL (≈ 75 µM)
MIC [12, 19]: 3.1 µg/mL (≈ 9.3 µM)
MIC [12, 20]: 25 µg/mL (≈ 75 µM)
